Laboratory results taken from ChEMBL document CHEMBL4229431, “Discovery of novel selective GPR120 agonists with potent anti-diabetic activity by hybrid design” (Bioorg Med Chem Lett, 2018).
Active and inactive are the calls of the source. The calls are words filed in the database; no cut-off is given here.

Tests used:
Mus musculus [1] = test: Hypoglycemic activity in ICR mouse assessed as reduction in blood glucose level pretreated orally for 60 mins followed by glucose challenge measured up to 120 mins by OGTT; type: functional, organism-based
[2] = target: Free fatty acid receptor 1 (Homo sapiens, UniProt O14842); test: Agonist activity at human GPR40 expressed in CHO cells assessed as increase in intracellular calcium level by Fluo-4-AM dye based assay; type: functional, cell-based
Free fatty acid receptor 1, sequence (O14842 whole entry): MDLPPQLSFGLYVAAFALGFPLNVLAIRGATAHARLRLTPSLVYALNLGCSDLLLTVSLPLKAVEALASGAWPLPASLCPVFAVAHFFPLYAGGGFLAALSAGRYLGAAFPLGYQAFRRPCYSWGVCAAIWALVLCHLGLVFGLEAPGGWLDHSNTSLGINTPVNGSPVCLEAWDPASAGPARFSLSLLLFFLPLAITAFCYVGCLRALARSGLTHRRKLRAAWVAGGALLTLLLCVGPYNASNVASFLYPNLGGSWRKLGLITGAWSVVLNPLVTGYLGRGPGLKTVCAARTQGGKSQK

[3] = target: T1, Free fatty acid receptor 4 (Homo sapiens, UniProt Q5NUL3); test: Agonist activity at human GPR120 expressed in CHO cells assessed as increase in intracellular calcium level by Fluo-4-AM dye based assay; type: functional, cell-based
T1 sequence (Q5NUL3 whole entry): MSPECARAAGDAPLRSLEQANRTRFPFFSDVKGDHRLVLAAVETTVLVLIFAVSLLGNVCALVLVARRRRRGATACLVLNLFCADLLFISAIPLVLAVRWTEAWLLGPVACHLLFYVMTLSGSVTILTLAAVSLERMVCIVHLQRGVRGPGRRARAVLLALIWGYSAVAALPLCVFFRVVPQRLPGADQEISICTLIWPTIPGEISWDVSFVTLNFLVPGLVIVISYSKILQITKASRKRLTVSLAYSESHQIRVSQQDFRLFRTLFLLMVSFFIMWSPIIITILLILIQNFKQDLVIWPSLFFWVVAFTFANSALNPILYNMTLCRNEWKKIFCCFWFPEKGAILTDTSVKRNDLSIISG

[4] = target: T2, Free fatty acid receptor 4 (Homo sapiens) (UniProt Q5NUL3); test: Agonist activity at human GPR120 expressed in CHO cells assessed as increase in intracellular calcium level at 1 uM by Fluo-4-AM dye based assay; type: functional, cell-based
T2 sequence (whole entry): T1 sequence (Q5NUL3 whole entry)

Homo sapiens = species: Homo sapiens; test: Selectivity ratio of EC50 for agonist activity at human GPR40 expressed in CHO cells to EC50 for agonist activity at human GPR120 expressed in CHO cells; type: cell-based
Mus musculus [5] = test: Hypoglycemic activity in ICR mouse assessed as reduction in blood glucose level at 10 mg/kg, po pretreated for 60 mins followed by glucose challenge measured up to 120 mins by OGTT; type: functional, organism-based
[6] = target: T1, Free fatty acid receptor 4; test: Agonist activity at human GPR120; type: functional

## CO[C@H]1C[C@H](Oc2cc(F)c(F)c(-c3cc(F)c(OCCCC(=O)O)c(F)c3)c2)C1
Mus musculus [1]
  Activity: Dose-dependent effect
[2]
  EC50: > 100 µM
[3]
  EC50: 0.093 µM

## Cc1c(COc2cc(F)c(F)c(-c3cc(F)c(OCCCC(=O)O)c(F)c3)c2)cccc1-c1ccccc1
[4]
  Activity: inactive

## COc1cc(-c2cc(O[C@H]3C[C@H](OC)C3)cc(F)c2F)cc(OC)c1OCCCC(=O)O
[4]
  Activity: inactive

## CO[C@H]1C[C@H](Oc2cc(F)c(F)c(-c3cc(F)c(SCCCC(=O)O)c(F)c3)c2)C1
[2]
  EC50: > 100 µM
[3]
  EC50: 0.347 µM

## COc1cc(F)c(F)c(-c2cc(F)c(OCCCC(=O)O)c(F)c2)c1
[2]
  EC50: 24.4 µM
[3]
  EC50: 0.069 µM
Homo sapiens
  Ratio EC50: 354

## CO[C@H]1C[C@H](Oc2cc(F)c(F)c(-c3cc(F)c(OCCC(C)(C)C(=O)O)c(F)c3)c2)C1
[2]
  EC50: > 100 µM
[3]
  EC50: 5.04 µM

## CO[C@H]1C[C@H](Oc2cc(F)c(F)c(-c3cc(F)c(OCCCC(=O)NS(=O)(=O)c4ccccc4)c(F)c3)c2)C1
[4]
  Activity: inactive

## CO[C@H]1C[C@H](Oc2cc(F)c(F)c(-c3cc(F)c(S(=O)(=O)CCCC(=O)O)c(F)c3)c2)C1
[4]
  Activity: inactive

## CO[C@H]1C[C@H](Oc2cc(F)c(F)c(-c3cc(F)c(OCCCC(=O)OCCNC(C)=O)c(F)c3)c2)C1
[4]
  Activity: inactive

## CO[C@H]1C[C@H](Oc2cc(F)c(F)c(-c3cc(F)c(OCC(=O)O)c(F)c3)c2)C1
[4]
  Activity: inactive

## CO[C@H]1C[C@H](Oc2cc(F)c(F)c(-c3cc(F)c(OCCCC(=O)NS(C)(=O)=O)c(F)c3)c2)C1
[4]
  Activity: inactive

## CO[C@H]1C[C@H](Oc2cc(F)c(F)c(-c3cc(F)c(OCCCCCCCC(=O)O)c(F)c3)c2)C1
[2]
  EC50: 3.48 µM
[3]
  EC50: 24 µM
Homo sapiens
  Ratio EC50: < 1

## CO[C@H]1C[C@H](Oc2cc(F)c(F)c(-c3ccc4c(c3)CC[C@H](CCC(=O)O)O4)c2)C1
Mus musculus [5]
  Activity: Active
[2]
  EC50: > 100 µM
[3]
  EC50: 0.463 µM

## CO[C@H]1C[C@H](Oc2cc(F)c(F)c(-c3cc(F)c(OCCCCCC(=O)O)c(F)c3)c2)C1
[2]
  EC50: 11 µM
[3]
  EC50: 0.638 µM
Homo sapiens
  Ratio EC50: 17

## CO[C@H]1C[C@H](Oc2cc3c(c(-c4cc(F)c(OCCCC(=O)O)c(F)c4)c2)OCO3)C1
[2]
  EC50: > 100 µM
[3]
  EC50: 0.22 µM

## CO[C@H]1C[C@H](Oc2cc(F)c(F)c(-c3cc(C)c(OCCCC(=O)O)c(C)c3)c2)C1
[2]
  EC50: > 100 µM
[3]
  EC50: 0.874 µM

## CO[C@H]1C[C@H](Oc2cc(F)c(F)c(-c3cc(F)c(OCCCCC(=O)O)c(F)c3)c2)C1
[2]
  EC50: 68.8 µM
[3]
  EC50: 0.186 µM
Homo sapiens
  Ratio EC50: 370

## CO[C@H]1C[C@H](Oc2ccc([N+](=O)[O-])c(-c3cc(F)c(OCCCC(=O)O)c(F)c3)c2)C1
[2]
  EC50: 29.4 µM
[3]
  EC50: 1.48 µM
Homo sapiens
  Ratio EC50: 20

## O=C(O)CCCOc1c(F)cc(-c2cc(OC3CCOCC3)cc(F)c2F)cc1F
[2]
  EC50: > 100 µM
[3]
  EC50: 2.78 µM

## CC(C)Nc1ccccc1-c1cc(F)c(OCCCC(=O)O)c(F)c1
[2]
  EC50: > 100 µM
[3]
  EC50: 1.47 µM
[6]
  EC50: 0.2 to 2 µM

## CO[C@H]1C[C@H](Oc2cc(F)c(F)c(-c3cc(F)c(OCCCCCCC(=O)O)c(F)c3)c2)C1
[2]
  EC50: 3.5 µM
[3]
  EC50: > 100 µM
